Earlier results as cited in article PMC6317804, “The integration of pharmacophore-based 3D QSAR modeling and virtual screening in safety profiling: A case study to identify antagonistic activities against adenosine receptor, A2A, using 1,897 known drugs” (PLoS ONE, 2019).

Target: T1, adenosine receptor 2A (A2A) (Homo sapiens, UniProt P29274)
T1 construct: CEREP (Poitiers, France), paid service
Conditions: S1 Table, compounds given as SMILES, downloaded from ChEMBL; cited from earlier work

T1 sequence (P29274 whole entry): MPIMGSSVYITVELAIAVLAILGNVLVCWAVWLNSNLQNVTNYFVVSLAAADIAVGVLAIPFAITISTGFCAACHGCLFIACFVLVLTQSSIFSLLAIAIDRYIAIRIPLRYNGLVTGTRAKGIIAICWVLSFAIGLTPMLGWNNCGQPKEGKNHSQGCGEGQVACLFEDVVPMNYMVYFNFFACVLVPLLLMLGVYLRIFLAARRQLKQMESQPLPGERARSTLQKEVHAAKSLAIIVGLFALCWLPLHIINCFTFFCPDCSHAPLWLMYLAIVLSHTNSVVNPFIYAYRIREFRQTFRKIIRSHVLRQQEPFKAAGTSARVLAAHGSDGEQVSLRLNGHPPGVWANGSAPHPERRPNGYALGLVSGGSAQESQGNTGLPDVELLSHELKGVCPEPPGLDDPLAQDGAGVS

Which IC50 does the source give for `CCNc1cc2nc(NCc3cccnc3)nc(C(=O)c3cccs3)c2s1` here?
Its IC50 is 2480 nM.

With `CCOC(=O)Nc1cc(-c2cncc(OC)c2)nc(-n2nc(C)cc2C)n1` as the compound, how does the IC50 read?
The IC50 was 196 nM.

For `Cc1ccc(C(=O)c2nc(NC(C)c3ccccc3)nc3ccsc23)s1` (centres unmarked), which IC50 is on record?
The IC50 was 1080 nM.

For `Cc1ccc(C(=O)c2nc(NC(C)c3ccccn3)nc3ccsc23)s1` (centres unmarked), which IC50 is on record?
The IC50 was 118 nM.

For `Cc1ccc(C(=O)c2nc(NC(C)c3cccnc3)nc3ccsc23)s1` (centres unmarked), which IC50 is on record?
The IC50 was 99 nM.

With `CC(=O)Nc1cc(-c2cccc(N3CCC(O)CC3)n2)nc(-n2nc(C)cc2C)n1` as the compound, how does the IC50 read?
Its IC50 is 22 nM.

For `CC(=O)Nc1cc(-c2cncc(O)c2)nc(-n2nc(C)cc2C)n1`, which IC50 is on record?
Its IC50 is 64 nM.

For `CCc1ccccc1-n1nc(C)c(-c2ccc3nccnc3c2)c1Nc1ccc(OC)cc1C(=O)O`, which IC50 is on record?
The IC50 was 50000 nM.

Which IC50 does the source give for `CCc1nn(-c2ccccc2C)c(Nc2ccccc2C(=O)O)c1-c1ccc2nccnc2c1` here?
The IC50 was 50000 nM.

For `CN(C)c1cc2nc(NCc3cccnc3)nc(C(=O)c3cccs3)c2s1`, which IC50 is on record?
The IC50 was 1420 nM.

Which IC50 does the source give for `Cc1ccc(C(=O)c2nc(N(C)Cc3cccnc3)nc3ccsc23)s1` here?
Its IC50 is 2270 nM.

For `CNc1cc2nc(NCc3cccnc3)nc(C(=O)c3cccs3)c2s1`, which IC50 is on record?
Its IC50 is 965 nM.

For `COC(=O)Nc1cc(-c2cncc(OC)c2)nc(-n2nc(C)cc2C)n1`, which IC50 is on record?
The IC50 was 167 nM.

For `COc1ccc(CCCn2ncc3c2nc(N)n2nc(-c4ccco4)nc32)cc1OC`, which IC50 is on record?
Its IC50 is 20 nM.

With `COc1ccc(Nc2c(-c3ccc4nccnc4c3)c(C)nn2-c2ccccc2C)c(C(=O)O)c1` as the compound, how does the IC50 read?
The IC50 was 50000 nM.

With `COc1ccc(Nc2c(-c3ccc4nccnc4c3)c(C)nn2-c2ccccc2Cl)c(C(=O)O)c1` as the compound, how does the IC50 read?
The IC50 was 50000 nM.

With `COc1ccc(C(=O)c2nc(NCc3cccnc3)nc3ccsc23)cc1` as the compound, how does the IC50 read?
Its IC50 is 637 nM.

For `COc1cccc(-c2cc(NC(C)=O)nc(-n3nc(C)cc3C)n2)c1F`, which IC50 is on record?
The IC50 was 32 nM.

With `C[C@H](Nc1nc(C(=O)N2CCCC2)c2sccc2n1)c1cccnc1` as the compound, how does the IC50 read?
Its IC50 is 468 nM.

Which IC50 does the source give for `C[C@@H](Nc1nc(C(=O)N2CCCC2)c2sccc2n1)c1cccnc1` here?
The IC50 was 6760 nM.

Which IC50 does the source give for `Cc1ccc(Nc2c(-c3ccc4nccnc4c3)c(C)nn2-c2ccccc2C)c(C(=O)O)c1` here?
Its IC50 is 50000 nM.

For `Cc1ccc(C(=O)c2nc(NCc3cccnc3)nc3ccsc23)cc1`, which IC50 is on record?
The IC50 was 442 nM.

Which IC50 does the source give for `Cc1ccc(C(=O)c2nc(NCCc3ccccn3)nc3ccsc23)s1` here?
Its IC50 is 351 nM.

With `Cc1ccc(C(=O)c2nc(NCCc3cccnc3)nc3ccsc23)s1` as the compound, how does the IC50 read?
The IC50 was 177 nM.

With `Cc1ccc(C(=O)c2nc(NC(=O)c3cccnc3)nc3ccsc23)s1` as the compound, how does the IC50 read?
The IC50 was 161 nM.

With `Cc1ccccc1-n1nc(C)c(-c2cc(F)c3nccnc3c2)c1Nc1ccccc1C(=O)O` as the compound, how does the IC50 read?
Its IC50 is 50000 nM.

For `Cc1ccccc1-n1nc(C)c(-c2ccc3nccnc3c2)c1Nc1ccc(Cl)cc1C(=O)O`, which IC50 is on record?
Its IC50 is 50000 nM.

With `Cc1ccccc1-n1nc(C(F)(F)F)c(-c2ccc3nccnc3c2)c1Nc1ccccc1C(=O)O` as the compound, how does the IC50 read?
The IC50 was 50000 nM.

Which IC50 does the source give for `Cc1ccccc1-n1ncc(-c2ccc3nccnc3c2)c1Nc1ccccc1C(=O)O` here?
The IC50 was 50000 nM.

For `CCNc1c2c(nc(NC(=O)Nc3ccc(OC)cc3)n3nc(-c4ccco4)nc23)nn1C`, which IC50 is on record?
Its IC50 is 61 nM.

With `O=C(c1cccs1)c1nc(NCc2cccnc2)nc2cc(Cl)sc12` as the compound, how does the IC50 read?
Its IC50 is 62 nM.

Which IC50 does the source give for `O=C(c1ccc(Cl)s1)c1nc(NCc2cccnc2)nc2ccsc12` here?
The IC50 was 1540 nM.

Which IC50 does the source give for `Nc1nc2c(cnn2CCCc2ccc(O)cc2)c2nc(-c3ccco3)nn12` here?
The IC50 was 10 nM.

For `Nc1nc2c(cnn2CCc2ccc(OCc3ccccc3)cc2)c2nc(-c3ccco3)nn12`, which IC50 is on record?
The IC50 was 90 nM.

Which IC50 does the source give for `Nc1nc2c(cnn2Cc2ccc(OCc3ccccc3)cc2)c2nc(-c3ccco3)nn12` here?
Its IC50 is 500 nM.

Which IC50 does the source give for “5-methoxy-2-((3-methyl-1-phenyl-4-(quinoxalin-6-yl)-1H-pyrazol-5-yl)amino)benzoic acid” here?
The IC50 was 5500 nM.

For `CC(Nc1nc(C(=O)N2CCCC2)c2sccc2n1)c1cccnc1` (centres unmarked) [CC(Nc1nc(C(=O)N2CCCC2)c3sccc3n1)c4cccnc4], which IC50 is on record?
Its IC50 is 2350 nM.

Which IC50 does the source give for `CCCSc1c2c(nc(N)n3nc(-c4ccco4)nc23)nn1C` [CCCSc1c2c(nc(N)n3nc(nc23)c4occc4)nn1C] here?
Its IC50 is 14.8 nM.

For `CCNC(=O)c1nc(NCc2cccnc2)nc2ccsc12` [CCNC(=O)c1nc(NCc2cccnc2)nc3ccsc13], which IC50 is on record?
The IC50 was 2520 nM.

For `CCNc1nc(C(=O)c2ccc(C)s2)c2sccc2n1` [CCNc1nc(C(=O)c2ccc(C)s2)c3sccc3n1], which IC50 is on record?
Its IC50 is 126 nM.

With `CCc1nc(C(=O)c2ccc(C)s2)c2sccc2n1` [CCc1nc(C(=O)c2ccc(C)s2)c3sccc3n1] as the compound, how does the IC50 read?
The IC50 was 3850 nM.

For `CSc1c2c(nc(N)n3nc(-c4ccco4)nc23)nn1C` [CSc1c2c(nc(N)n3nc(nc23)c4occc4)nn1C], which IC50 is on record?
The IC50 was 6.1 nM.

Which IC50 does the source give for `Cc1nc(C(=O)c2ccc(C)s2)c2sccc2n1` [Cc1ccc(s1)C(=O)c2nc(C)nc3ccsc23] here?
Its IC50 is 7850 nM.

For `Cc1ccc(C(=O)c2nc(N)nc3ccsc23)s1` [Cc1ccc(s1)C(=O)c2nc(N)nc3ccsc23], which IC50 is on record?
Its IC50 is 220 nM.

Which IC50 does the source give for `Cc1ccc(C(=O)c2nc(NCC3CCCCC3)nc3ccsc23)s1` [Cc1ccc(s1)C(=O)c2nc(NCC3CCCCC3)nc4ccsc24] here?
Its IC50 is 10000 nM.

For `Cc1ccc(C(=O)c2nc(NCc3ccccn3)nc3ccsc23)s1` [Cc1ccc(s1)C(=O)c2nc(NCc3ccccn3)nc4ccsc24], which IC50 is on record?
Its IC50 is 186 nM.

Which IC50 does the source give for `Cc1ccc(C(=O)c2nc(NCc3cccnc3)nc3ccsc23)s1` [Cc1ccc(s1)C(=O)c2nc(NCc3cccnc3)nc4ccsc24] here?
The IC50 was 990 nM.

With `Cc1ccc(C(=O)c2nc(NCc3ccncn3)nc3ccsc23)s1` [Cc1ccc(s1)C(=O)c2nc(NCc3ccncn3)nc4ccsc24] as the compound, how does the IC50 read?
Its IC50 is 116 nM.

With `Cc1ccc(C(=O)c2ncnc3ccsc23)s1` [Cc1ccc(s1)C(=O)c2ncnc3ccsc23] as the compound, how does the IC50 read?
Its IC50 is 6680 nM.

For `Cc1ccc(C(=O)c2nc(NCc3cccnc3)nc3ccsc23)o1` [Cc1oc(cc1)C(=O)c2nc(NCc3cccnc3)nc4ccsc24], which IC50 is on record?
Its IC50 is 1250 nM.

For `Nc1cc2nc(NCc3cccnc3)nc(C(=O)c3cccs3)c2s1` [Nc1cc2nc(NCc3cccnc3)nc(C(=O)c4cccs4)c2s1], which IC50 is on record?
Its IC50 is 10000 nM.

For `O=C(c1nc(NCc2cccnc2)nc2ccsc12)N1CCCC1` [O=C(N1CCCC1)c2nc(NCc3cccnc3)nc4ccsc24], which IC50 is on record?
Its IC50 is 6140 nM.

Which IC50 does the source give for `O=C(NC1CC1)c1nc(NCc2cccnc2)nc2ccsc12` [O=C(NC1CC1)c2nc(NCc3cccnc3)nc4ccsc24] here?
The IC50 was 710 nM.

For `O=C(c1ccccc1)c1nc(NCc2cccnc2)nc2ccsc12` [O=C(c1ccccc1)c2nc(NCc3cccnc3)nc4ccsc24], which IC50 is on record?
Its IC50 is 1620 nM.

With `O=C(c1cccnc1)c1nc(NCc2cccnc2)nc2ccsc12` [O=C(c1cccnc1)c2nc(NCc3cccnc3)nc4ccsc24] as the compound, how does the IC50 read?
Its IC50 is 1170 nM.

For `O=C(c1cccs1)c1nc(NCc2cccnc2)nc2ccsc12` [O=C(c1cccs1)c2nc(NCc3cccnc3)nc4ccsc24], which IC50 is on record?
The IC50 was 51 nM.

Which IC50 does the source give for `O=C(c1ccncc1)c1nc(NCc2cccnc2)nc2ccsc12` [O=C(c1ccncc1)c2nc(NCc3cccnc3)nc4ccsc24] here?
Its IC50 is 1940 nM.

For `O=C(c1ccsc1)c1nc(NCc2cccnc2)nc2ccsc12` [O=C(c1ccsc1)c2nc(NCc3cccnc3)nc4ccsc24], which IC50 is on record?
The IC50 was 405 nM.

With `O=C(c1cncs1)c1nc(NCc2cccnc2)nc2ccsc12` [O=C(c1cncs1)c2nc(NCc3cccnc3)nc4ccsc24] as the compound, how does the IC50 read?
Its IC50 is 1720 nM.

With `O=C(c1nccs1)c1nc(NCc2cccnc2)nc2ccsc12` [O=C(c1nccs1)c2nc(NCc3cccnc3)nc4ccsc24] as the compound, how does the IC50 read?
The IC50 was 732 nM.

Same assay, conditions: S1 Table, compounds given as SMILES, downloaded from ChEMBL; listed as COc1ccc(Nc2c(c(C)nn2C3CCCCC3)c4ccc5nccnc5c4)c(c1)C(=O)O; cited from earlier work

For “5-methoxy-2-((3-methyl-1-phenyl-4-(quinoxalin-6-yl)-1H-pyrazol-5-yl)amino)benzoic acid”, which IC50 is on record?
Its IC50 is 50000 nM.

Same assay, conditions: S1 Table, compounds given as SMILES, downloaded from ChEMBL; listed as Cc1ccc(s1)C(=O)c2nc(NCc3ccccc3)nc4ccsc24; cited from earlier work

With `Cc1ccc(C(=O)c2nc(NCC3CCCCC3)nc3ccsc23)s1` [Cc1ccc(s1)C(=O)c2nc(NCC3CCCCC3)nc4ccsc24] as the compound, how does the IC50 read?
The IC50 was 7150 nM.

Same assay, conditions: training set compound, negative logarithm of IC50; cited from earlier work

For “5-methoxy-2-((3-methyl-1-phenyl-4-(quinoxalin-6-yl)-1H-pyrazol-5-yl)amino)benzoic acid”, which “measured pIC50” value is on record?
The value was 4.3.

With `CC(C)NC(=O)c1nc(NCc2cccnc2)nc2ccsc12` [CC(C)NC(=O)c1nc(NCc2cccnc2)nc3ccsc13, N-isopropyl-2-((pyridin-3-ylmethyl)amino)thieno[3,2-d]pyrimidine-4-carboxamide] as the compound, how does the “measured pIC50” value read?
Its value is 5.6.

Which “measured pIC50” value does the source give for `Cc1ccc(C(=O)c2nc(NCc3ccncn3)nc3ccsc23)s1` [Cc1ccc(s1)C(=O)c2nc(NCc3ccncn3)nc4ccsc24] here?
The value was 6.9.
